Source: PMC2359919, “Molecular targeting of retinoic acid metabolism in neuroblastoma: the role of the CYP26 inhibitor R116010 in vitro and in vivo” (British Journal of Cancer, 2007)

What was measured:
[1] = Pharmacokinetic analysis of RA in an SH-SY5Y xenograft model (retinoid concentrations in plasma, liver, tumour by LC/MS); type: in vivo, CD-1 nude mice; conditions: for % Total retinoids, tumour, 0.5 h / Tumour concentration, 0.5 h / % Total retinoids, tumour, 2 h / Tumour concentration, 2 h / % Total retinoids, tumour, 6 h / Tumour concentration, 6 h: SH-SY5Y tumour; for % Total retinoids, tumour, 0.5 h / Tumour concentration, 0.5 h / % Total retinoids, tumour, 2 h / Tumour concentration, 2 h / % Total retinoids, tumour, 6 h / Tumour concentration, 6 h / % Total retinoids, liver, 0.5 h / Liver concentration, 0.5 h / % Total retinoids, liver, 2 h / Liver concentration, 2 h / % Total retinoids, liver, 6 h / Liver concentration, 6 h / % Total retinoids, plasma, 0.5 h / Plasma concentration, 0.5 h / % Total retinoids, plasma, 2 h / Plasma concentration, 2 h / % Total retinoids, plasma, 6 h / Plasma concentration, 6 h: label = retinoid measured; for Plasma % of total retinoids at all time points: 0.5, 2 and 6 h
Experimental: (§1) All in vivo experiments were approved by the relevant institutional animal welfare committees, and performed according to national law. Female athymic nude mice (CD-1 nu/nu, Charles River) used for antitumour studies were maintained and handled in isolators, under specific pathogen-free conditions, at 24°C with a 12 h light, 12 h dark cycle. Tumours were generated by implantation of SH-SY5Y cells subcutaneously (s.c.) into one flank of CD-1 nude mice (1 × 10^7 cells per animal).
(§2) Treatments began when the tumours were between 7 and 10 mm in length and breadth. Retinoids and R116010 were initially dissolved in DMSO before 10- or 20-fold dilutions in PBS, respectively. For pharmacokinetic studies, the animals were dosed with ATRA or 13cisRA (each 100 mg kg^−1) orally for 0.5, 2 and 6 h. For metabolism studies, animals were treated with R116010 orally at doses of 1.25 or 2.5 mg kg^−1 either immediately before the retinoid being studied, or up to three times (over 1–2 days) before dosing with the retinoid. At termination of experiments, animals were bled under terminal anaesthesia then killed by cervical dislocation. Plasma was immediately removed from the blood by centrifugation at 1000 g for 5 min and snap-frozen in liquid nitrogen in amber Eppendorfs. Tumour and liver samples were removed and snap-frozen, wrapped in foil, in liquid nitrogen.
(§3) Cell pellets obtained from retinoid incubations were re-suspended in 2 ml cell culture medium and disrupted by passing the samples several times through a syringe and hypodermic needle (25G × 1 inches, 0.5 mm × 25 mm; Terumo, Somerset, NJ, USA). Tumour and liver tissues were re-suspended in PBS and homogenised (T25 homogeniser, IKA Laboratories, Staufen, Germany). Retinoids were extracted as described previously ([Veal et al, 2002]; [Armstrong et al, 2005b]). Samples were reconstituted in 200 μl mobile phase A (n-hexane:dichloromethane:propan-2-ol, 400 : 1 : 0.27) and analysed by normal-phase HPLC as described previously ([Veal et al, 2002]). For LC/MS analysis, samples were reconstituted in 200 μl mobile phase A (50% acetonitrile, 50% (0.2%) acetic acid, v v^−1).
(§4) Resolution of retinoids was performed with a Luna C18(2) column (3 μm, 50 mm × 2 mm) using a Perkin Elmer LC (Beaconsfield, UK) system, consisting of a vacuum degasser, two series 200 pumps, a thermostatically controlled series 200 autosampler and a Waters 2487 UV absorbance detector. Retinoic isomers and metabolites were separated by gradient reversed-phase chromatography. An injection volume of 20 μl with a flow rate of 0.2 ml min^−1 was used with mobile phase A (50% acetonitrile, 50% (0.2%) acetic acid, v v^−1) and mobile phase B (acetonitrile, 0.1% acetic acid, v v^−1). Linear gradients were employed between the specified times as follows: 0, 100% A; 5 min, 100% A; 15 min, 100% B; 20 min, 100% B; 23 min, 100% A; 35 min, 100% A. An Applied Biosystems (Warrington, UK) API-2000 LC/MS/MS triple Q (quadrupole) mass spectrometer with electrospray ionisation source, controlled by Analyst software, was operated in single quadrupole negative mode for the detection of compounds.

[2] = tested on: RA metabolism; assay: Effect of R116010 on retinoid concentrations (plasma, liver, tumour) in an SH-SY5Y xenograft model, LC/MS; type: in vivo, CD-1 nude mice; conditions: ATRA-treated mice (100 mg kg^−1) without or with R116010; 6 h
Experimental: as §1, §2, §3, §4

[3] = tested on: CYP26; set-up: method as in Njar et al, 2006; conditions: ref Njar et al, 2006; cited from earlier work
[4] = after 13cisRA 100 mg kg^−1 oral

CC1=C(/C=C/C(C)=C/C=C/C(C)=C\C(=O)O)C(C)(C)CCC1=O [13cis-4-oxoRA, 13-cis-4-oxo-RA]
% Total retinoids, tumour, 0.5 h [1, 4]: 3% | Tumour concentration, 0.5 h [1, 4]: 0.06 ± 0.02 µg/g | % Total retinoids, tumour, 2 h [1, 4]: 2% | Tumour concentration, 2 h [1, 4]: 0.04 ± 0.0 µg/g | % Total retinoids, tumour, 6 h [1, 4]: 19% | Tumour concentration, 6 h [1, 4]: 0.11 ± 0.05 µg/g | % Total retinoids, liver, 0.5 h [1, 4]: 18% | Liver concentration, 0.5 h [1, 4]: 0.89 ± 0.22 µg/g | % Total retinoids, liver, 2 h [1, 4]: 33% | Liver concentration, 2 h [1, 4]: 1.33 ± 0.08 µg/g | % Total retinoids, liver, 6 h [1, 4]: 69% | Liver concentration, 6 h [1, 4]: 3.79 ± 0.99 µg/g | Liver concentration, 6 h ([1]; after 13cisRA 100 mg kg^−1 oral, listed as 13cis-4-oxo-RA): 3.79 µg/g | % Total retinoids, plasma, 0.5 h [1, 4]: 2% | Plasma concentration, 0.5 h [1, 4]: 270 ± 110 nM | % Total retinoids, plasma, 2 h [1, 4]: 3% | Plasma concentration, 2 h [1, 4]: 630 ± 100 nM | % Total retinoids, plasma, 6 h [1, 4]: 20% | Plasma concentration, 6 h [1, 4]: 1220 ± 240 nM | Plasma % of total retinoids at all time points ([1]; after ATRA 100 mg kg^−1): < 10% | % Total retinoids, tumour, 0.5 h ([1]; after ATRA 100 mg kg^−1 oral): 0% | Tumour concentration, 0.5 h ([1]; after ATRA 100 mg kg^−1 oral): 0 µg/g | % Total retinoids, tumour, 2 h ([1]; after ATRA 100 mg kg^−1 oral): 0% | Tumour concentration, 2 h ([1]; after ATRA 100 mg kg^−1 oral): 0 µg/g | % Total retinoids, tumour, 6 h ([1]; after ATRA 100 mg kg^−1 oral): 0% | Tumour concentration, 6 h ([1]; after ATRA 100 mg kg^−1 oral): 0 µg/g | % Total retinoids, liver, 0.5 h ([1]; after ATRA 100 mg kg^−1 oral): 1% | Liver concentration, 0.5 h ([1]; after ATRA 100 mg kg^−1 oral): 0.06 ± 0.03 µg/g | % Total retinoids, liver, 2 h ([1]; after ATRA 100 mg kg^−1 oral): 1% | Liver concentration, 2 h ([1]; after ATRA 100 mg kg^−1 oral): 0.09 ± 0.02 µg/g | % Total retinoids, liver, 6 h ([1]; after ATRA 100 mg kg^−1 oral): 4% | Liver concentration, 6 h ([1]; after ATRA 100 mg kg^−1 oral): 0.22 ± 0.09 µg/g | % Total retinoids, plasma, 0.5 h ([1]; after ATRA 100 mg kg^−1 oral): <1% | Plasma concentration, 0.5 h ([1]; after ATRA 100 mg kg^−1 oral): 30 ± 10 nM | % Total retinoids, plasma, 2 h ([1]; after ATRA 100 mg kg^−1 oral): <1% | Plasma concentration, 2 h ([1]; after ATRA 100 mg kg^−1 oral): 20 ± 10 nM | % Total retinoids, plasma, 6 h ([1]; after ATRA 100 mg kg^−1 oral): <1% | Plasma concentration, 6 h ([1]; after ATRA 100 mg kg^−1 oral): 50 ± 30 nM | Plasma 13cis-4-oxo-RA [2]: not detectable

CC1=C(/C=C/C(C)=C/C=C/C(C)=C/C(=O)O)C(C)(C)CCC1=O [AT-4-oxoRA, all-trans-4-oxo-RA]
Plasma % of total retinoids at all time points ([1]; after 13cisRA 100 mg kg^−1): < 10% | % Total retinoids, tumour, 0.5 h [1, 4]: <1% | Tumour concentration, 0.5 h [1, 4]: 0.02 ± 0.0 µg/g | % Total retinoids, tumour, 2 h [1, 4]: 3% | Tumour concentration, 2 h [1, 4]: 0.09 ± 0.04 µg/g | % Total retinoids, tumour, 6 h [1, 4]: 16% | Tumour concentration, 6 h [1, 4]: 0.09 ± 0.02 µg/g | % Total retinoids, liver, 0.5 h [1, 4]: 5% | Liver concentration, 0.5 h [1, 4]: 0.26 ± 0.10 µg/g | % Total retinoids, liver, 2 h [1, 4]: 8% | Liver concentration, 2 h [1, 4]: 0.30 ± 0.09 µg/g | % Total retinoids, liver, 6 h [1, 4]: 12% | Liver concentration, 6 h [1, 4]: 0.67 ± 0.25 µg/g | % Total retinoids, plasma, 0.5 h [1, 4]: 0% | Plasma concentration, 0.5 h [1, 4]: 0 nM | % Total retinoids, plasma, 2 h [1, 4]: <1% | Plasma concentration, 2 h [1, 4]: 130 ± 40 nM | % Total retinoids, plasma, 6 h [1, 4]: 0% | Plasma concentration, 6 h [1, 4]: 0 nM | % Total retinoids, tumour, 0.5 h ([1]; after ATRA 100 mg kg^−1 oral): 8% | Tumour concentration, 0.5 h ([1]; after ATRA 100 mg kg^−1 oral): 0.21 ± 0.09 µg/g | % Total retinoids, tumour, 2 h ([1]; after ATRA 100 mg kg^−1 oral): 2% | Tumour concentration, 2 h ([1]; after ATRA 100 mg kg^−1 oral): 0.24 ± 0.06 µg/g | % Total retinoids, tumour, 6 h ([1]; after ATRA 100 mg kg^−1 oral): 17% | Tumour concentration, 6 h ([1]; after ATRA 100 mg kg^−1 oral): 0.79 ± 0.38 µg/g | % Total retinoids, liver, 0.5 h ([1]; after ATRA 100 mg kg^−1 oral): 11% | Liver concentration, 0.5 h ([1]; after ATRA 100 mg kg^−1 oral): 0.44 ± 0.12 µg/g | % Total retinoids, liver, 2 h ([1]; after ATRA 100 mg kg^−1 oral): 13% | Liver concentration, 2 h ([1]; after ATRA 100 mg kg^−1 oral): 1.07 ± 0.05 µg/g | % Total retinoids, liver, 6 h ([1]; after ATRA 100 mg kg^−1 oral): 45% | Liver concentration, 6 h ([1]; after ATRA 100 mg kg^−1 oral): 2.39 ± 0.72 µg/g | Liver concentration, 6 h ([1]; after ATRA 100 mg kg^−1 oral, listed as AT-4-oxo-RA): 2.39 µg/g | % Total retinoids, plasma, 0.5 h ([1]; after ATRA 100 mg kg^−1 oral): 4% | Plasma concentration, 0.5 h ([1]; after ATRA 100 mg kg^−1 oral): 600 ± 400 nM | % Total retinoids, plasma, 2 h ([1]; after ATRA 100 mg kg^−1 oral): 6% | Plasma concentration, 2 h ([1]; after ATRA 100 mg kg^−1 oral): 1700 ± 300 nM | % Total retinoids, plasma, 6 h ([1]; after ATRA 100 mg kg^−1 oral): 22% | Plasma concentration, 6 h ([1]; after ATRA 100 mg kg^−1 oral): 4000 ± 2400 nM

Clc1cccc(C(c2ccc3[nH]cnc3c2)n2ccnc2)c1 (stereo not drawn) [liarozole]
Ability to inhibit CYP26 [3]: only moderate ability to inhibit CYP26
